These results are taken from patent US8466160B2, “Identification of non-small cell lung carcinoma (NSCLC) tumors expressing PDGFR-alpha” (priority 2005, dated 2013).

In one assay the test system is ERK phosphorylation. Put plainly: Western blot of ERK phosphorylation in H1703 cells. The format is cell-based, human. The conditions noted are these: FIG. 9(a). The procedure: (§1) Phosphorylation of the EGFR receptor, ERK and AKT were determined while total PDGFRα and ERK1/2 are included as loading controls. […] AKT is thought to be the primary driver of cell survival (see Franke, Cell 88: 435-437 (1997)).

Assay [1] concerns AKT phosphorylation. The assay can be described thus: IHC of AKT phosphorylation in xenograft tumors. The class given is in vivo, mice. The conditions noted are these: treated vs control tumors, FIG. 11. The procedure:
(§2) In this model, human cell lines are injected into immune-compromised mice forming xenograft tumors that resemble human tumors including vascularization and other features found in human tumors. The mice are then administered the drug in the same manner as in human patients. Tumor size may be monitored visually during drug treatment and the tumors may be removed, fixed and analyzed by standard IHC procedures or lysed and analyzed by Western blot.

The test system of assay [2] is AKT phosphorylation. The assay can be described thus: Western blot of AKT phosphorylation in H1703 cells. The format is cell-based, human. As to the method:
as §1
For orientation: Immunoblotting shows a protein as a band on a membrane.

The test system of the next assay is H1703 cell line. Put plainly: MTT cell proliferation assay, H1703. The format is cell-based, human. The settings on record: concentrations similar to K562 (0.1 μM). (In general: Tetrazolium assays rely on reduction of a dye to a coloured formazan, in cell work by metabolically active cells.)
For assay [3], the system named is A549 cell line. The assay can be described thus: MTT cell proliferation assay, A549. The format is cell-based, human.
The test system of assay [4] is PDGFRα phosphorylation. The assay can be described thus: Western blot of PDGFRα phosphorylation in H1703 cells. The class given is cell-based, human. The conditions noted are these: dose response, FIG. 9(b).
Assay [5] has as its system PDGFRα-expressing human NSCLC tumors (H1703) xenografts. The assay can be described thus: Tumor size in mouse xenografts of PDGFRα-expressing human NSCLC tumors. The format is in vivo, mice. The procedure:
This hypothesis was tested using mouse xenografts derived from the H1703 cell line.
as §2
(In xenograft studies the graft and the host belong to different species.)

The test system of assay [6] is PDGFRα phosphorylation. The assay can be described thus: Western blot / IHC of PDGFRα phosphorylation in xenograft tumors. The format is in vivo, mice. The procedure:
as §2

The test system of assay [7] is A549 cell line. The settings on record: Mol. Cancer 2003, not reproduced by the inventors; cited from earlier work.
The next assay has as its system K562 cell line. The assay can be described thus: MTT cell proliferation assay, K562. The format is cell-based.
The subject of a further assay is H1373 cell line. Put plainly: MTT cell proliferation assay, H1373. The class given is cell-based, human.

The structures appear in SMILES notation. Counter-ions that a name gives are not always drawn.

Take `COc1cc2ncnc(Nc3ccc(F)c(Cl)c3)c2cc1OCCCN1CCOCC1` [Iressa™]: the “effect on ERK phosphorylation” value in the assay on ERK phosphorylation is given as “decreases”.

Regarding `Cc1ccc(NC(=O)c2ccc(CN3CCN(C)CC3)cc2)cc1Nc1nccc(-c2cccnc2)n1` [Gleevec®, Imatinib mesylate], the “effect on AKT phosphorylation in xenograft tumors (IHC)” value with AKT phosphorylation [1] is recorded as “decrease”. Further, the “effect on AKT phosphorylation” value in the assay with AKT phosphorylation [2] (Western blot, FIG. 9(a)) is recorded as “loss of AKT phosphorylation”. Moreover, the “dose that greatly inhibits AKT phosphorylation” value in the assay on AKT phosphorylation [2] (dose response, FIG. 9(b)) came out at 0.1 µM. The “sensitivity of cell growth to Gleevec (MTT)” value with H1703 cell line was “sensitive”; in the assay with H1373 cell line, “insensitive”. Besides, the “concentration up to which cell growth was not affected (MTT)” value in the assay on A549 cell line [3] was over 10 µM. Besides, the “lowest dose that inhibits PDGFRα phosphorylation” value with PDGFRα phosphorylation [4] was found to be 0.01 µM. For the same compound, in assay [5] (3 treated mice, control approximately 190 mm), the “average tumor diameter in treated mice” value was “approximately 20 mm”. In addition, the “effect on tumor size” value in [5] (xenograft, FIG. 10(a)) is reported as “significant decrease in tumor size”. Also, in the assay with PDGFRα phosphorylation [6] (treated vs control tumors, FIG. 11), the “effect on PDGFRα phosphorylation in xenograft tumors (IHC)” value was “decrease”. Further, the “effect on PDGFRα phosphorylation in xenografts (Western blot)” value with PDGFRα phosphorylation [6] (tumor lysate, 4 treated mice vs one control) is given as “inhibiting PDGFRα phosphorylation”. For the same compound, the “growth of A549 cell line as reported by Zhang et al.” value with A549 cell line [7] is “growth inhibition”. For the same compound, the “concentration at which cell line is sensitive (MTT)” value in the assay with K562 cell line was found to be 0.1 µM.
